Source: patent publication US20080200682A1, “Process of Producing Bleach Boosters” (BASF Aktiengesellschaft, priority 2005, published 2008)
Where a name gives a salt, the structure may show the parent alone.

Assays:
Format in all cases: biochemical
[1] = biological target: T1, Termamyl (amylase enzyme) (Bacillus licheniformis, UniProt P06278)
T1 construct: purchased Novozymes, Denmark

Duramyl (amylase enzyme) = test: Organic Catalyst/Enzyme Compatibility Test (alpha amylase activity assay), Duramyl; settings: (Ac/Ab)x100 for Duramyl; [Peracetic Acid]=5.0 ppm; [organic catalyst]=0.5 ppm; detergent solution, 40° C.
[2] = tested on: Natalase (amylase enzyme); test: Organic Catalyst/Enzyme Compatibility Test (alpha amylase activity assay), Natalase; settings: (Ac/Ab)x100 for Natalase; [Peracetic Acid]=5.0 ppm; [organic catalyst]=0.5 ppm; detergent solution, 40° C.
[3] = tested on: Amylase enzymes: Termamyl, Natalase, and Duramyl; test: Organic Catalyst/Enzyme Compatibility Test, average ECV of the three enzymes; settings: ECV=(ECVter+ECVdur+ECVnat)/3; [Peracetic Acid]=5.0 ppm; [organic catalyst]=0.5 ppm

T1 sequence (P06278 30-512): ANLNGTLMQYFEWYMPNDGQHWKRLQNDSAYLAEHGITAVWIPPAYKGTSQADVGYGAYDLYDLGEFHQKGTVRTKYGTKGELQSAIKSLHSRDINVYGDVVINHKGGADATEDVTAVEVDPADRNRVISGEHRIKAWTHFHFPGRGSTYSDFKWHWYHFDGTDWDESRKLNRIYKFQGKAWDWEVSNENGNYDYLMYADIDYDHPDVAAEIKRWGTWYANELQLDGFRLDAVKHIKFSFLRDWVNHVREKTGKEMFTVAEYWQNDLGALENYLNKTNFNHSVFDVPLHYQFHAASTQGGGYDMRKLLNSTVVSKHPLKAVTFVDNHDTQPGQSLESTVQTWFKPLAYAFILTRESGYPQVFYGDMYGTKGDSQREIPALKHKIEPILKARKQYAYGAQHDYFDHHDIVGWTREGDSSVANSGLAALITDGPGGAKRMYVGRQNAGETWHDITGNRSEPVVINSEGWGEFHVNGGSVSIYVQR

| Compound | Enzyme Compatibility Values ECVter [1] | Enzyme Compatibility Values ECVdur (Duramyl (amylase enzyme)) | Enzyme Compatibility Values ECVnat [2] | Enzyme Compatibility Values ECV [3] |
| --- | --- | --- | --- | --- |
| Sulfuric acid mono-[2-(3,4-dihydro-isoquinolin-2-yl)-1-(iso-decyloxymethyl)-ethyl]ester, internal salt [Entry 7] | 98 | 97 | 96 | 97 |
| Sulfuric acid mono-[2-(3,4-dihydro-isoquinolin-2-yl)-1-(iso-nonyloxymethyl)-ethyl]ester, internal salt [Entry 6] | 86 | 96 | 88 | 90 |
| CCCCC(CC)COCC(C[N+]1=Cc2ccccc2CC1)OS(=O)(=O)[O-] (stereo not drawn) [Entry 2, reference compound] | 54 | 90 | 57 | 67 |
| Sulfuric acid mono-[2-(3,4-dihydro-isoquinolin-2-yl)-1-(iso-tridecyloxymethyl)-ethyl]ester, internal salt [Entry 8] | 99 | 100 | 101 | 100 |
| CCCCCCC(CCCC)COCC(C[N+]1=Cc2ccccc2CC1)OS(=O)(=O)[O-] (stereo not drawn) [Entry 4, Sulfuric acid mono-[2-(3,4-dihydro-isoquinolin-2-yl)-1-(2-butyl-octyloxymethyl)-ethyl]ester, internal salt] | 101 | 101 | 102 | 101 |
| CCCCCC(CCC)COCC(C[N+]1=Cc2ccccc2CC1)OS(=O)(=O)[O-] (stereo not drawn) [Entry 3, Sulfuric acid mono-[2-(3,4-dihydro-isoquinolin-2-yl)-1-(2-propylheptyloxymethyl)-ethyl]ester, internal salt] | 98 | 101 | 99 | 99 |
